Reference: patent publication US11091429B2, “Organic compounds” (Givaudan SA, priority 2012, dated 2021)

Assays:
[1] = Tasting in mango juice drink, 1% clear mango juice; conditions: 8% sucrose, 0.1% citric acid, mango flavour 0.05%
Experimental: Comparison in a Mango Juice Drink
Base is 8% sucrose, 0.1% citric acid, 1% clear mango juice, and a proprietary mango flavour at 0.05%.
(§1) Samples were evaluated by expert tasters. Tasters were asked to describe the samples focusing on authentic taste, mouthfeel, fullness, salty-ness, salivation, umami, sweetness, juiciness, richness, long lastingness and fattiness.
Base is water, 8% sucrose, 0.1% citric acid, 1% clear mango juice, proprietary mango flavour @ 0.05%
(§2) Samples were evaluated by expert tasters. Tasters were asked to describe the samples focusing on authentic taste, mouthfeel, fullness, salivation, salty-ness, umami, sweetness, juiciness, richness, long lastingness and fattiness.
Base is water, 8% sucrose, 0.1% citric acid, 1% clear mango juice, proprietary mango flavour @0.05%
(§3) Samples were evaluated by expert tasters. Tasters were asked to describe the samples focusing on authentic taste, mouthfeel, fullness, salty-ness, salivation, umami, sweetness, juiciness, richness, long lastingness and fattiness
Base is 8% sucrose, 0.1% citric acid, 1% clear mango juice, proprietary mango flavour @ 0.05%
(§4) Samples were evaluated by expert tasters. Tasters were asked to describe the samples focusing on authentic taste, mouth feel, fullness, salivation, salty-ness, umami, sweetness, juiciness, richness, long lastingness and fattiness
Base is water, 8% sucrose, 0.1% citric acid, 1% clear mango juice, proprietary mango flavour @ 0.05%.
Test in a Mango Juice Drink

[2] = Tasting in Maggi beef bouillon; conditions: Maggi beef bouillon 1 tablet in 500 ml of hot water
Experimental: (§5) Samples were prepared and evaluated by expert tasters. Tasters were asked to describe the samples focusing on authentic taste, mouthfeel, fullness, salty-ness, salivation, umami, sweetness, juiciness, richness, long lastingness and fattiness.
Comparison in Beef Bouillon
Base is Maggi beef bouillon 1 tablet in 500 ml of hot water
as §1, §2, §3, §4

[3] = Tasting in chicken bouillon; conditions: 0.7% salt, 0.5% fat
Experimental: (§6) The following formulations were prepared and tasted by trained panelists.
Standard Chicken bouillon base, 0.7% salt, 0.5% fat
Samples were prepared and evaluated by expert tasters. Tasters were asked to describe the samples focusing on authentic taste, mouthfeel, fullness, salivation, salty-ness, umami, sweetness, juiciness, richness, long lastingness and fattiness.
Test in Soups and Bouillons
Standard Chicken Bouillon Base

[4] = Test in peach flavoured drink; conditions: 1 ppm; water, 8% sugar, 0.1% citric acid, peach flavour 0.05%
Experimental: as §5
Test in Peach Flavoured Drink:
Base is water, 8% sugar, 0.1% citric acid, and proprietary peach flavour at 0.05%
as §1
Comparison in a Peach Drink
Base is water, 8% sugar, 0.1% citric acid, proprietary peach flavour at 0.05%
as §2

[5] = Test in chocolate flavoured drink; conditions: 0.5 ppm; water, 4% sucrose, chocolate flavour 0.03%
Experimental: as §5
Test in Chocolate Flavoured Drink:
Base: Water, 4% sucrose, proprietary chocolate flavor at 0.03%
as §1
Test in Chocolate Flavoured Drink Flavoured
Base: Water, 4% sucrose, proprietary chocolate flavour @ 0.03%

[6] = Test in pear flavoured drink; conditions: 0.5 ppm; water, 7% sugar, 0.1% citric acid, pear flavour 0.025%
Experimental: as §5
Test in Pear Flavoured Drink:
Base: water, 7% sugar, 0.1% citric acid, proprietary pear flavour at 0.025%
as §1
Comparison in a Pear Drink
Base is water, 8% sugar, 0.1% citric acid, proprietary pear flavour at 0.025%

[7] = Tasting in vanilla milk 0.15% fat; conditions: 1 ppm, 4% sucrose, Vaniline 10 ppm + vanilla extract 0.03%
Experimental: as §5
Base: Milk 0.15% fat, sweetened with 4% sucrose by weight, flavoured with proprietary
Vaniline flavour @ 10 ppm+Vanilla ext. @ 0.03%
as §1
Comparison in a Vanilla Milk Drink
Vaniline @ 10 ppm+Vanilla extract @ 0.03%
Base: Milk 0.15% fat, sweetened with 4% sucrose by weight, flavoured with proprietary Vaniline @ 10 ppm+Vanilla extract @ 0.03%

Test in orange beverage = conditions: 1 ppm; water, 7% sugar (8% sucrose elsewhere in the source), 0.1% citric acid, orange flavour 0.06%
Experimental: as §1
Base is water, 7% sugar, 0.1% citric acid, proprietary orange flavour @ 0.06%.
as §3
Base is water, 7% sugar, 0.1% citric acid, proprietary orange flavour @ 0.06%
as §4
Samples were evaluated by expert tasters. Tasters were asked to describe the samples focusing on authentic taste, mouthfeel, fullness, salivation, sweetness, juiciness, richness, long lastingness and fattiness
Comparison in an Orange Drink
Base: water, 8% sucrose, 0.1% citric acid, proprietary orange flavour @ 0.06%.

[8] = Tasting in beef bouillon base; conditions: 0.5 PPM in beef bouillon base 1.0% salt, 0.5% fat
Experimental: as §6
Beef Bouillon base 1.0% salt, 0.5% fat

[9] = Tasting in strawberry drink; conditions: 7% sucrose, 0.1% citric acid, strawberry flavour 0.015%
Experimental: as §5
Comparison in a Strawberry Drink
Base is 7% sucrose, 0.1% citric acid, and a proprietary strawberry flavour @ 0.015%
as §1
Base is water, 7% sucrose, 0.1% citric acid, proprietary strawberry flavour @ 0.015%
as §2
Test in a Strawberry Drink
Base is 7% sucrose, 0.1% citric acid, proprietary strawberry flavour @ 0.015%

[10] = Tasting in strawberry flavoured sugar sweetened yoghurt; conditions: 2 ppm, 1.5% fat yoghurt, 8% sucrose, strawberry flavour 0.015%
Experimental: Strawberry Flavoured Sugar Sweetened Yoghurt
In a 1.5% fat yoghurt base, sweetened with 8% sucrose by weight, flavoured with a proprietary strawberry flavour @ 0.015% several different N-acyl aminoacids were added.
as §5
Test in a Strawberry Yoghurt
Base: Yoghurt 1.5% fat yoghurt, 8% sucrose, proprietary strawberry flavour @ 0.015%
as §2

[11] = 0.2 PPM in chicken bouillon base

With `CCCCCCCC(=O)NC(CCSC)C(=O)O` (centres unmarked) [C8:0-met] the tasting result ([1]; 1 ppm) was “green fresh, no additional body” and the tasting result ([2]; 1 ppm) was “more salty, no additional fullness”.
With `CCCCCCCCCC(=O)NC1(C(=O)O)CC1` [C10:0 ACCA, N-decanoyl 1-amino-cyclopropyl carboxylic acid] the tasting result [3, 11] was “More umami lingering body” and the tasting result ([3]; 0.5 PPM in chicken bouillon base) was “Nice strong salty, Umami lingering body, better chicken profile”.
With `CCCCCCCCCCCCCCCC(=O)NCCC(=O)O` [C16:0-beta ala] the tasting result ([1]; 2 ppm) was “more juicy” and the tasting result ([2]; 2 ppm) was “more salty salivating umami”.
For `CCCCCCCCCCCCCCCC(=O)NC(CCC(=O)O)C(=O)O` (centres unmarked) [C16:0-glu, N-palmitoyl-Glu], the tasting result [4] was “fruity, nice juicy, sweet, soft peach skin”, the tasting result ([1]; 1 ppm) was “slightly more juicy impact” and the tasting result [5] was “sweet, fatty cocoa, sulphur is enhanced, enhanced nib note”. The tasting result [6] was “fatty long lasting” and the tasting result [7] was “ice cream like, sweet, very full”.
For `CCCCCCCCCCCCCCCC(=O)NCC(=O)O` [C16:0-gly], the tasting result (Test in orange beverage) was “sweet after taste juicy”.
With `CCCCCCCCCCCCCCCC(=O)N[C@@H](CC(C)C)C(=O)O` [C16:0-leu, N-palmitoyl-L-leucine] the tasting result ([1]; 2 ppm) was “very fruity, ripe mango taste, strawberry note”.
For `CCCCCCCCCCCCCCCC(=O)NC(CCSC)C(=O)O` (centres unmarked) [C16:0-met, N-palmitoyl-Met], the tasting result (Test in orange beverage) was “slightly metallic, fresh”, the tasting result ([1]; 1 ppm) was “fatty, full body, juicy, metallic” and the tasting result ([2]; 1 ppm) was “salty, full, nice salivating, lingering”.
For `CCCCCCCCCCCCCCCC(=O)N1CCCC1C(=O)O` (centres unmarked) [C16:0-pro, N-palmitoyl-Pro], the tasting result ([1]; 1 ppm) was “overripe, orange like, long lasting after taste” and the tasting result ([2]; 1 ppm) was “more salty, full, darker, more meat-like”.
In the case of `CCCCCCCCCCCCCCCC(=O)N[C@H](C(=O)O)C(C)C` [C16:0-val, N-palmitoyl-L-valine], the tasting result [4] is reported as “very juicy”.
With `CCCCCC/C=C\CCCCCCCC(=O)NC(CC(C)C)C(=O)O` [C16:1 leu, N-palmitenoyl-L-leucine] the tasting result [8] was “Strong salty and rich”.
With `CCCCCC/C=C\CCCCCCCC(=O)NCCCC(=O)O` [C16:1-gaba] the tasting result ([1]; 2 ppm) was “juicy, rich, full authentic” and the tasting result ([9]; 2 ppm) was “juicy, fruity, fatty, long lasting, good mouthfeel”.
In the case of `CCCCCC/C=C\CCCCCCCC(=O)NC(CCC(=O)O)C(=O)O` (centres unmarked) [C16:1-glu, N-palmitenoyl-Glu], the tasting result ([1]; 1 ppm) is reported as “full, heavy, jammy, long lasting”, the tasting result ([9]; 0.5 ppm) is reported as “full, fatty, creamy” and the tasting result [7] is reported as “full, fatty, creamy, sweet vanilla”.
With `CCCCCCCCCCCCCCCCCC(=O)NC(CC(=O)O)C(=O)O` (centres unmarked) [C18:0-asp, N-stearoyl-Asp] the tasting result ([1]; 1 ppm) was “fatty, fruity, long lasting” and the tasting result ([2]; 1 ppm) was “lot off fullness and body, less salty”.
For `CCCCCCCCCCCCCCCCCC(=O)NCCCC(=O)O` [C18:0-gaba], the tasting result [10] was “juicy full, jammy” and the tasting result ([9]; 0.5 ppm) was “mild creamy, fruity, juicy and long lasting”.
For `CCCCCCCCCCCCCCCCCC(=O)NC(CCC(N)=O)C(=O)O` (centres unmarked) [C18:0-gln, N-stearoyl-Gln], the tasting result [10] was “Sweet full juicy, nice, slight enhanced sulphury”.
In the case of `CCCCCCCCCCCCCCCCCC(=O)NC(CCC(=O)O)C(=O)O` (centres unmarked) [C18:0-glu, N-stearoyl-Glu], the tasting result ([1]; 1 ppm) is reported as “fatty, full, sweet juicy”, the tasting result ([9]; 0.5 ppm) is reported as “fruity, juicy, long lasting” and the tasting result [7] is reported as “full, fatty, whipped cream like”.
For `CCCCCCCCCCCCCCCCCC(=O)N[C@@H](CO)C(=O)O` [C18:0-ser, N-stearoyl-Ser], the tasting result ([1]; 1 ppm) was “nice sweet, pineapple, long lasting” and the tasting result ([2]; 1 ppm) was “more salty, richer, more umami”.
For `CCCCCCCC/C=C\CCCCCCCC(=O)NC(CC(=O)O)C(=O)O` (centres unmarked) [C18:1-asp], the tasting result ([1]; 1 ppm) was “juicy fruit like” and the tasting result ([2]; 1 ppm) was “not special”.
In the case of `CCCCCCCC/C=C\CCCCCCCC(=O)NCCC(=O)O` [C18:1-beta ala], the tasting result ([1]; 2 ppm) is reported as “more juicy, longlasting” and the tasting result ([2]; 2 ppm) is reported as “more salty salivating umami”.
For `CCCCCCCC/C=C\CCCCCCCC(=O)NC(CCC(N)=O)C(=O)O` (centres unmarked) [C18:1-gln], the tasting result [10] was “Juicy, nice, fatty aftertaste” and the tasting result ([9]; 0.5 ppm) was “more juicy, creamy, fruity long lasting”.
In the case of `CCCCCCCC/C=C\CCCCCCCC(=O)N[C@@H](CC(C)C)C(=O)O` [C18:1-leu, N-oleoyl-L-leucine], the tasting result ([1]; 2 ppm) is reported as “very long lasting, ripe, fruity, juicy”.
With `CCCCCCCC/C=C\CCCCCCCC(=O)N[C@H](C(=O)O)C(C)C` [C18:1-val, N-oleoyl-L-valine] the tasting result [4] was “tropical, fatty, skin, juicy”.
For `CCCCC/C=C\C/C=C\CCCCCCCC(=O)NC1(C(=O)O)CC1` [C18:2 ACCA, N-linoleoyl 1-amino-cyclopropyl carboxylic acid], the tasting result [3, 11] was “Creamy, full body, more fatty chicken”.
For `CCCCC/C=C\C/C=C\CCCCCCCC(=O)N[C@@H](C)C(=O)O` [C18:2-ala, N-linoleoyl-L-alanine], the tasting result [4] was “enhanced sulfur note, powdery, soft peach skin like, authentic peach, slight raspberry note”, the tasting result ([1]; 1 ppm) was “fatty, juicy, apple skin taste” and the tasting result ([9]; 0.5 ppm) was “creamy, fruity, juicy, green, long lasting, strawberry”.
For `CCCCC/C=C\C/C=C\CCCCCCCC(=O)NCCC(=O)O` [C18:2-beta ala], the tasting result ([1]; 2 ppm) was “full long lasting nice juicy, almost a bit salty” and the tasting result ([2]; 2 ppm) was “salty, savoury, full”.
In the case of `CCCCC/C=C\C/C=C\CCCCCCCC(=O)NCC(=O)O` [C18:2-gly, N-linoleoyl-glycine], the tasting result (Test in orange beverage) is reported as “very juicy, salivating, authentic, long lasting and sweet aftertaste”.
For `CCCCC/C=C\C/C=C\CCCCCCCC(=O)NC(CCSC)C(=O)O` (centres unmarked) [C18:2-met, N-linoleoyl-Met], the tasting result ([1]; 1 ppm) was “fresh nice juicy” and the tasting result ([2]; 1 ppm) was “salivating salty, umami”.
With `CCCCC/C=C\C/C=C\CCCCCCCC(=O)NC(CO)C(=O)O` (centres unmarked) [C18:2-ser, N-linoleoyl-Ser] the tasting result (Test in orange beverage) was “very fresh, authentic, slightly less sweet, more juicy”, the tasting result ([1]; 1 ppm) was “apple note, less acidic, juicy” and the tasting result ([2]; 1 ppm) was “more umami, slightly more salty, sweet”.
In the case of `CCCCC/C=C\C/C=C\CCCCCCCC(=O)N[C@H](C(=O)O)C(C)C` [C18:2-val, N-linoleoyl-L-valine], the tasting result ([1]; 1 ppm) is reported as “ripe, very juicy nice, full body, long lasting”, the tasting result [8] is reported as “more body and mouthfeel, more umami” and the tasting result ([2]; 1 ppm) is reported as “more umami, salivating, salty”.
For `CC(C)=CCC/C(C)=C/C(=O)NC1(C(=O)O)CC1` [Geranoyl ACCA, N-geranoyl 1-amino-cyclopropyl carboxylic acid], the tasting result [3, 11] was “Saltier Umami lingering Mouthfeel”.
